Laboratory results: patent publication US20260083826A1, “NEW SYNTHETIC DRUGS FOR TREATING ALZHEIMER'S DISEASE” (OKINAWA INSTITUTE OF SCIENCE AND TECHNOLOGY SCHOOL …, priority 2022, published 2026)
“Also recorded” adds a separate entry of the source.

How the values were obtained:
β3-tubulin = assay: Immunofluorescence quantification of MTs in calyceal terminals; format: cell-based, mouse
Description: (§1) The following primary antibodies were used: anti-β3-tubulin (Synaptic System, #302304), anti-human Tau (BioLegend, #806501), anti-dynamin (Invitrogen, PA1-660). Secondary antibodies were goat IgG conjugated with Alexa Fluor 488, 568, or 647 (Thermo Fisher Scientific). Acute brainstem slices (175 μm in thickness, see below) were fixed with 4% paraformaldehyde in PBS for 30 min at 37° C. and overnight at 4° C. On the following day, slices were rinsed three times in PBS, permeabilized in PBS containing 0.5% Triton X-100 (Tx-100; Nacalai Tesque) for 30 min and blocked in PBS containing 3% bovine serum albumin (BSA; Sigma-Aldrich) and 0.05% Tx-100 for 45 min. Slices were incubated overnight at 4° C. with primary antibody diluted in PBS 0.05% Tx-100, 0.3% BSA. On the next day, slices were rinsed three times with PBS containing 0.05% Tx-100 for 10 min and incubated with corresponding secondary antibody diluted in PBS 0.05% Tx-100, 0.3% BSA for 1 h at room temperature (RT). […] For quantifying fluorescence intensity levels, the region of interest was delimited around calyceal terminals, and background fluorescence was subtracted using ImageJ software.
(§2) The monomeric GTPases dynamin 1 and 3 play critical roles in the endocytic fission of SVs (50-52). […] To test this hypothesis, we performed immunofluorescence microscopy and image analysis to quantify MTs and dynamin. […]

porcine tubulin = porcine tubulin (Sus scrofa, UniProt P02550+P02554); assay: Tubulin polymerization assay (MT assembly); format: biochemical
porcine tubulin, sequence (P02550 whole entry): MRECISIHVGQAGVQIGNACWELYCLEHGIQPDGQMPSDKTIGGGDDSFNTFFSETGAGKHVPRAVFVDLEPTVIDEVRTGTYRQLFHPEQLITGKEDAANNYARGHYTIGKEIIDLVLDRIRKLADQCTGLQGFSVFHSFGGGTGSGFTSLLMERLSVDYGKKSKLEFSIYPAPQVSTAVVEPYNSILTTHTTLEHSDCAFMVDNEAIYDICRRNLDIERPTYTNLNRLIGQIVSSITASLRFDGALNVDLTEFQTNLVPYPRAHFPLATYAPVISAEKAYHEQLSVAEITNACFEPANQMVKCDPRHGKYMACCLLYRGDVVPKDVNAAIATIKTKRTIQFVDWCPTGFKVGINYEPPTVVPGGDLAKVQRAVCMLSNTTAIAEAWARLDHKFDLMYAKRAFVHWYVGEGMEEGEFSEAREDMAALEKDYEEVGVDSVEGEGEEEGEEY
porcine tubulin, sequence (P02554 whole entry): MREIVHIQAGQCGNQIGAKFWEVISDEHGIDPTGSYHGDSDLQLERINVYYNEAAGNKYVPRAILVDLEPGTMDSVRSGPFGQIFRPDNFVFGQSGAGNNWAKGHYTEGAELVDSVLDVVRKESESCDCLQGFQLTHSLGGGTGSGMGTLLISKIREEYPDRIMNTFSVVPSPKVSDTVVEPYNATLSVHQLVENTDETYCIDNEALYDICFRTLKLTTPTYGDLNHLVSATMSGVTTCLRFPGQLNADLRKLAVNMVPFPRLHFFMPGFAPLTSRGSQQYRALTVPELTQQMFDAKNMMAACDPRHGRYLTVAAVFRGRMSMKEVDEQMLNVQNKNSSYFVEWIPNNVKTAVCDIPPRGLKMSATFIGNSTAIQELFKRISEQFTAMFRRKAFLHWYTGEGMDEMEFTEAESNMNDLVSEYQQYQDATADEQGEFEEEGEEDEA

[1] = system: calyx of Held presynaptic terminals; assay: Membrane capacitance measurements (SV exo-endocytosis) at calyx of Held presynaptic terminals; format: cell-based, mouse; details: for Presynaptic Ca2+ current charge (QCa) / Exocytic capacitance magnitude / Endocytic rate (endocytic capacitance change): 20 μM; for Presynaptic Ca2+ current charge (QCa): 20-30 min after patch membrane rupture; for Exocytic capacitance magnitude: vs controls; for Effect on h-tau-induced endocytic slowing: 0.25 mM co-loaded with WT h-tau 20 μM
[2] = system: calyx of Held presynaptic terminals; assay: Simultaneous pre- and postsynaptic whole-cell recording of EPSCs at the calyx of Held in brainstem slices; format: cell-based, mouse; details: for EPSC amplitude 30 min after infusion (normalized to baseline) / EPSC amplitude remaining 30 min after infusion (normalized to baseline): 20 μM loaded in presynaptic terminal; for Prevention of WT h-tau-induced EPSC rundown: 20 μM co-loaded with WT h-tau 20 μM; for Effect on h-tau-induced EPSC rundown: 1 mM co-loaded with h-tau 20 μM, 30 min after infusion; for EPSC amplitude at 30 min (normalized to baseline): 1 μM intra-terminal
dynamin1 = assay: Immunofluorescence quantification of bound-form dynamin in calyceal terminals; format: cell-based, mouse
Description: as §1, §2

MT-dynamin 1 binding = molecular target: T1, MT-dynamin 1 binding (Sus scrofa, UniProt P02550+P02554); assay: MT-dynamin binding assay (microtubule spin-down, SDS-PAGE, SYPRO Orange); parameters: species or system human
T1 construct: His
T1 sequence (P02550 whole entry): as the sequence (P02550 whole entry) above
T1 sequence (P02554 whole entry): as the sequence (P02554 whole entry) above
Description: Microtubule binding assay was performed using Microtubule Binding Protein Spin Down Assay Kit (cat #BK029, Cytoskeleton Inc., Denver, CO, USA). Briefly, 20 μl of 5 mg/ml tubulin in general tubulin buffer (GTB; 80 mM PIPES pH7.0, 2 mM MgCl2, 0.5 mM EGTA) supplemented with 1 mM GTP were polymerized by adding 2 μl of cushion buffer (80 mM PIPES pH7.0, 1 mM MgCl2, 1 mM EGTA, 60% glycerol), and incubated at 35° C. for 20 min. Microtubules were stabilized with 20 μM Taxol. Taxol-stabilized microtubules (2.5 μM) and dynamin 1 ([…]) were incubated in GTB with or without 1 mM peptide at room temperature for 30 min. After incubation, the 50 μl of mixture was loaded on top of 100 μl cushion buffer supplemented with 20 μM Taxol, and then centrifuged at 100,000×g for 40 min at room temperature. After the ultracentrifugation, 50 μl of supernatant was taken and mixed with 10 μl of 5×sample buffer. The resultant pellet was resuspended with 50 μl of 1×sample buffer. Twenty μl of each sample was analyzed by SDS-PAGE and stained with SYPRO Orange. Protein bands were visualized using FLA-3000 (FUJIFILM Co. LTD, Tokyo, Japan).
MTs were prepared from tubulin and stabilized by taxol. And then taxol stabilized MTs and Dyn1 were incubated with/without PHDP5. Using ultracentrifugation to separate supernatant (unbinding protein) and pellet (bound protein) fractions. Samples were analyzed by SDS-PAGE gel and visualized by SYPRO Orange staining. […] This may cause by competitive binding of Dyn1/PHDP5 to MTs (FIG. 6A).
We changed the incubation order that MTs were mixed with PHDP5 and then incubated with Dyn1.
For optimizing the condition of PHDP5 to block MT-dynamin binding, we have tried different PHDP5 concentration and incubation period with Dyn1. […] Without PHDP5, there is no difference between each time point (FIG. 7B). […] We prepared several FITC-labeled PHDP5 peptide candidates to improve the brain barrier permeability of PHDP5 (Table 3). The N-terminus of the construct was protected with β-alanine (BA) and labeled with FITC. Under the same condition, several FITC-labeled PHDP5 candidates and its' scrambled control were also tested.

[3] = 30 min after patch membrane rupture
[4] = 30 min after patch membrane rupture, listed as h-tau

“WT h-tau: wild-type recombinant human tau of ON4R isoform expressed in E. coli” was tested. Which “Increase in MT (β3-tubulin) signals vs terminals without loading” value (β3-tubulin; 20 μM whole-cell infusion) did it give?
Its value is 2.1 fold.

What about the “β3-tubulin immunofluorescence intensity vs control terminals” value (β3-tubulin; WT h-tau loading) of the same molecule?
Its value is “significantly increased”.

What about the “MT assembly in in vitro tubulin polymerization assay” value (porcine tubulin; 10 μM) of the same molecule?
The value was “MT assembly”.

What about the “Presynaptic Ca2+ current charge (QCa)” value [1] of the same molecule?
The value was “not different from controls; also recorded: remained unchanged”.

What about the “Presynaptic Ca2+ current charge (QCa)” value ([1]; listed as h-tau) of the same molecule?
Its value is “without a change”.

What about the Exocytic capacitance magnitude ([1]; 20 min after patch membrane rupture) of the same molecule?
The Exocytic capacitance magnitude was “not different from controls; also recorded: remained similar to controls”.

What about the “Endocytic rate (endocytic capacitance change)” value ([1]; 20 min after patch membrane rupture, vs non-loading controls) of the same molecule?
Its value is “significant slowing; also recorded: significantly prolonged”.

What about the “Endocytic rate (endocytic capacitance change)” value [1, 3] of the same molecule?
The value was “further prolonged”.

What about the Exocytic capacitance magnitude [1, 3] of the same molecule?
Its Exocytic capacitance magnitude is “significantly less than controls”.

What about the Exocytic capacitance magnitude [1, 4] of the same molecule?
Its Exocytic capacitance magnitude is “significant reduction”.

And the “Endocytic rate (endocytic capacitance change)” value [1, 4]?
The value was “further slowed”.

What about the “Miniature EPSC amplitude and frequency” value ([2]; 20 μM intra-terminal loading) of the same molecule?
Its value is “neither amplitude nor frequency was affected”.

And the “EPSC amplitude 30 min after infusion (normalized to baseline)” value ([2]; EPSCs evoked at 0.1 Hz)?
Its value is 85±12%.

What about the “EPSC amplitude 30 min after infusion (normalized to baseline)” value ([2]; EPSCs evoked at 0.1 Hz, listed as h-tau) of the same molecule?
Its value is 85%+12.

What about the “EPSC amplitude remaining 30 min after infusion (normalized to baseline)” value ([2]; EPSCs evoked at 1 Hz) of the same molecule?
The value was 65±5%.

What about the “EPSC amplitude remaining 30 min after infusion (normalized to baseline)” value ([2]; EPSCs evoked at 1 Hz, listed as h-tau) of the same molecule?
Its value is 23±9%.

What about the “Increase in dynamin signal vs terminals without loading” value (dynamin1; 20 μM whole-cell infusion) of the same molecule?
The value was 2.6 fold.

What about the “dynamin1 immunofluorescence intensity vs control terminals” value (dynamin1; WT h-tau loading) of the same molecule?
Its value is “significantly increased”.

What does the source list for COC(=O)Nc1nc2ccc(C(=O)c3cccs3)cc2[nH]1 [nocodazole, reference compound]?
Concentration at which maximal inhibition of h-tau-dependent MT assembly is reached (porcine tubulin): 20 µM; Inhibition of h-tau-dependent MT assembly (porcine tubulin; nocodazole 1, 10, 20, 50 μM, ON4R h-tau (20 μM)): inhibited h-tau-dependent MT assembly in a concentration-dependent manner; also recorded: Concentration-dependent inhibitory effects; Effect on exo-endocytosis, loaded alone ([1]; 20 μM alone): no effect; Prevention of h-tau-induced block of SV endocytosis ([1]; 20 μM co-loaded with h-tau 20 μM, 25 min after loading): fully prevented; Effect on EPSC amplitude, loaded alone ([2]; 20 μM alone): no effect; Prevention of WT h-tau-induced EPSC rundown [2]: fully prevented; Prevention of WT h-tau-induced EPSC rundown ([2]; listed as Nocodazole): prevented EPSC rundown

With “PHDP5: synthetic dodecapeptide corresponding to amino acids 560-571 of dynamin 1 (PH domain); inhibits MT-dynamin interaction (EKKYMLSVDNLK)” as the molecule, how does the “Effect on exo-endocytic capacitance changes, loaded alone” value ([1]; 0.25 mM alone) read?
The value was “no effect”.

What about the “Effect on h-tau-induced endocytic slowing” value [1] of the same molecule?
The value was “significantly attenuated”.

What about the “Effect on h-tau-induced endocytic slowing” value ([1]; listed as DPHP5) of the same molecule?
Its value is “significant difference”.

And the “Effect on EPSC amplitude, loaded alone” value ([2]; 1 mM alone)?
The value was “did not affect”.

What about the “Effect on EPSC amplitude, loaded alone” value ([2]; 1 mM alone, listed as DPHP5) of the same molecule?
Its value is “no effect”.

And the “Effect on h-tau-induced EPSC rundown” value [2]?
The value was “significantly attenuated”.

And the “Effect on h-tau-induced EPSC rundown” value ([2]; listed as DPHP5)?
Its value is “attenuated”.

And the “Inhibition of MT-dynamin 1 interaction” value (MT-dynamin 1 binding; 1 mM peptide)?
Its value is “significantly inhibited; also recorded: strongly inhibits”.

What about the “% of Dyn1 in pellet fraction” value (MT-dynamin 1 binding; MTs incubated with 1 mM, shorter incubation period with Dyn1 (10 min)) of the same molecule?
The value was “lower”.

What about the “% of Dyn1 in pellet fraction” value (MT-dynamin 1 binding; MTs incubated with 3 mM compared with 1 mM) of the same molecule?
Its value is “lower”.

What about the “% of Dyn1 in pellet fraction” value (MT-dynamin 1 binding; MTs incubated with 3 mM, incubation with Dyn1 for 5 min) of the same molecule?
Its value is “lower”.

What about the “% of Dyn1 in pellet fraction” value (MT-dynamin 1 binding; MTs mixed with PHDP5 first, then incubated with Dyn1) of the same molecule?
The value was “decreased”.

What about the “Dynamin 1 in precipitates (ppt fraction) relative to total amount” value (MT-dynamin 1 binding; peptide added to MT and dynamin 1, 22.6±2.4% with MT without peptide) of the same molecule?
The value was 6.3±2.4%.

What about the “% of Dyn1 in pellet fraction” value (MT-dynamin 1 binding; taxol stabilized MTs and Dyn1 incubated together with/without PHDP5) of the same molecule?
The value was “no difference”.

Which results are given for CC(=O)O[C@H]1C(=O)[C@@]2(C)[C@H]([C@H](OC(=O)c3ccccc3)[C@]3(O)C[C@H](OC(=O)[C@H](O)[C@@H](NC(=O)c4ccccc4)c4ccccc4)C(C)=C1C3(C)C)[C@]1(OC(C)=O)CO[C@@H]1C[C@@H]2O [taxol, reference compound]?
MT assembly in in vitro tubulin polymerization assay (porcine tubulin; 1 μM): assembles tubulins into MTs; also recorded: MT assembly; EPSC amplitude at 30 min (normalized to baseline) ([2]; EPSCs evoked at 0.1 Hz): 104±3.0%; EPSC amplitude at 30 min (normalized to baseline) ([2]; EPSCs evoked at 0.1 Hz, listed as Taxol): 105±3.0%; EPSC amplitude at 30 min (normalized to baseline) ([2]; EPSCs evoked at 1 Hz): 41±12%; EPSC amplitude at 30 min (normalized to baseline) ([2]; EPSCs evoked at 1 Hz, listed as Taxol): 41.4±12%

Which “Effect on SV endocytosis” value ([1]; calyceal terminals in slices from post-hearing mice (P13-14)) does the source give for O=C1NC(=S)N(c2cccc(Br)c2)C(=O)/C1=C/c1ccco1 [SMFH2, reference compound] here?
The value was “slightly prolonged SV endocytosis, but this effect was statistically insignificant”.

B1: del-MTBD: human tau deletion mutant lacking the MT-binding domain (amino acid 244 to 367) (protein)
chain: MAEPRQEFEVMEDHAGTYGLGDRKDQGGYTMHQDQEGDTDAGLKAEEAGIGDTPSLEDEAAGHVTQARMVSKSKDGTGSDDKKAKGADGKTKIATPRGAAPPGQKGQANATRIPAKTPPAPKTPPSSGEPPKSGDRSGYSSPGSPGTPGSRSRTPSLPTPPTREPKKVAVVRTPPKSPSSAKSRLNKKIETHKLTFRENAKAKTDHGAEIVYKSPVVSGDTSPRHLSNVSSTGSIDMVDSPQLATLADEVSASLAKQGL
Which results are given for B1?
MT assembly in in vitro tubulin polymerization assay (porcine tubulin; 10 μM, listed as Del-MTBD): lacking tubulin polymerization capability; Effect on EPSC amplitude, loaded alone ([2]; 20 μM alone): no effect
